From article PMC5329948, “Caspase vinyl sulfone small molecule inhibitors prevent axonal degeneration in human neurons and reverse cognitive impairment in Caspase-6-overexpressing mice” (Molecular Neurodegeneration, 2017)

System: mice hippocampi
Experiment: Hippocampal Casp6 substrates, synaptic and glial markers after treatment (western blot, immunohistochemistry)
Assay type: in vivo, mouse
Description: Protein extracts from HCT116 cells and human primary neurons were subjected to western blotting analyses. The 10630 (1:10 000) and GN60622 (1:10 000) neoepitope antibodies against the p20 subunit of active Casp6 (Casp6p20) and α-tubulin cleaved by Casp6 (TubΔCasp6) were generated previously in our laboratory. The β-actin clone AC-15 (1:5 000, Sigma-Aldrich, Oakville, ON, CA), Casp6 (1:1 000), Synapsin (1:5 000), full-length α-tubulin (1:1 000, Cell Signalling Technology Inc., Danvers, MA, USA), GFAP (1:3 000, Dako, Burlington, ON, CA), synaptophysin (1:5 000, Sigma, Oakville, ON, CA), and PSD95 clone K28143 (1:5 000, UC Davis/NIH NeuroMab Facility) were purchased. All antibodies were diluted in 5% non-fat dry milk. Secondary anti-mouse (1:5 000, GE Healthcare Life Sciences, Baie D’Urfe, QC, CA) and anti-rabbit antibodies (1:5 000, Dako, Burlington, ON, CA) conjugated to horseradish peroxidase were used to detect immunoreactive proteins using ECL prime western blotting detection reagent (GE Healthcare Life Sciences, Baie D’Urfe, QC, CA) and Kodak BioMax MR film (Kodak, Rochester, NY, USA). Secondary anti-mouse conjugated to alkaline phosphatase (Jackson Immunoresearch Laboratories Inc., West Grove, PA) was developed with nitro-blue tetrazolium (Thermo Fisher Scientific, Waltham, MA, USA) and 5-bromo-4-chloro-3-indolylphosphate (Thermo Fisher Scientific, Waltham, MA, USA) for chromogenic detection of proteins. The western blots were scanned with an HP scanner and the images were not manipulated except to adjust the brightness/contrast and this was done simultaneously to the entire blot. Quantification was performed with the ImageJ software (NIH, Bethesda, MD, USA).
Only males were used and littermates from each genotype (wild type (WT)/WT, WT/Cre, & knock-in (KI/)Cre) were tested together. The experimenter was blind to genotype and treatment groups. Mice were administered 20 mg/kg NWL-117 or physiological saline (0.9% NaCl) by intraperitoneal injections two times 48 h apart. […] Blood brain barrier permeability of NWL-117 caspase inhibitor: Briefly, 18–22 month old Casp6 mice were anesthetised with isoflurane, warmed with a heating blanket, and their physiological vitals (heart rate, body temperature, and respiration) monitored. The skin over the mouse’s neck was shaved, xylocaine applied, and an incision was made along the midline. Under a surgical microscope, the right carotid artery was gently separated from surrounding tissue. Two suture threads were placed at the proximal and distal ends of the carotid, and a small incision was made along the carotid wall. A micro-catheter (attached to a 1 ml syringe controlled by a micropump) was inserted and pushed to the entrance of the internal carotid artery. The catheter was secured in place using suture thread. NWL-117 (20 mg/kg) was infused via the micro-catheter using a pump set at 50 μL/min (total volume between 64 μL and 130 μL). After 5 min, blood was collected by intra-cardiac puncture, the mouse was perfused through the heart with ice cold saline for 2–3 min. The brain was removed and hippocampi were dissected and frozen on dry ice and stored. Samples were sent to the Biopharmacy platform at the University of Montreal (Quebec, Canada) for liquid chromatography and tandem mass spectrometry analysis. The integrity of the blood-brain barrier was confirmed by injecting 3% Evan’s blue solution in 20 month old Casp6 mice. […]

Compound: CCC(C)[C@H](NC(=O)[C@H](CCC(=O)O)NC(=O)[C@@H](NC(=O)OCc1ccccc1)C(C)C)C(=O)N[C@H](/C=C/S(C)(=O)=O)CC(=O)O (some centres unmarked) [NWL-117]
- Synapsin, synaptophysin and PSD95 hippocampal protein levels (20 mg/kg i.p.): unchanged
- TubΔCasp6 immunostaining, CA1, KI/Cre mice (20 mg/kg i.p.): increased non-significantly
- TubΔCasp6 immunostaining, CA1, control mice (20 mg/kg i.p.): non-significantly decreased TubΔCasp6 levels threefold
- GFAP levels (KI/Cre mice hippocampal extracts): did not change
- p97 cleaved by Casp6 (Δp97) (KI/Cre mice, versus saline): not different
